Results on one molecule are retold here after patent US11944624B2, “Peptide and small molecule agonists of EphA and their uses” (CASE WESTERN RESERVE UNIVERSITY, priority 2017, dated 2024).

In test [1] the test system is ERK1/2 and Akt. Kind of test: Inhibition of ERK1/2 and Akt activation in A172-A2 cells. Format: cell-based. As to conditions: 50 μM and 100 μM. Here is the method:
(§1) Cells were plated in 24-well dishes at a density of 100,000 cells/well and grown for 24 hours prior to stimulation with appropriate compounds and ephrins for the given amounts of time. Compounds were prepared in DMSO at 500 times the final concentrations and 0.2% DMSO was used as vehicle control. Following treatment, cells were lysed directly in SDS Gel Loading Buffer and immunoblotted as described previously. Immunoprecipitation and immunofluorescence staining was performed as described. For immunoprecipitation, 300,000 cells/well were plated in 6-well dishes and lysed in modified RIPA Buffer (20 mM Tris-HCl pH 7.4, 20 mM NaF, 150 mM NaCl, 10% glycerol, 0.1% SDS, 0.5% DCA, 2 mM EDTA, 1% Triton X-100) following treatment. Either 10 μg of ephrin-A1-Fc, or […] of EphA2 mouse monoclonal antibody (Clone D7, Millipore) were used, and mouse IgG was used as a negative control for EphA2 IP.
Activation of EphA2 receptor by ephrin-A1 ligand inhibits both ERK1/2 and Akt kinase activities in most normal cells and a subset of cancer cells. […] We first tested this by utilizing the A172 glioma cells engineered to overexpress EphA2 receptor (A172-A2).

For test [2], the system named is ERK and Akt activities. Kind of test: ERK and Akt activities in LK133A-A2 cells (EphA2 restored). Format: cell-based, mice. As for the experimental part:
as §1
To address this question, we utilized an immortalized liver epithelial cell line, LK133A, isolated from a hepatoma induced by DEN in EphA2 knockout mice. Retroviral vector was used to restore EphA2 expression in these cells (LK133A-A2), and cells transduced with an empty vector were used as control (LK133AVec).

The target of test [3] is endogenous EphA2 (Homo sapiens, UniProt P29317). Put plainly: EphA2 internalization in parental MDA-MB-231 cells (immunofluorescence, Example 1). The following applies: 50 μM, two hours. Further details: host or cells: MDA-MB-231 (parental). It counts as cell-based. Here is the method:
as §1
Similar to other receptor tyrosine kinases, activation of the EphA2 receptor by its ligand, ephrin-A1, results in receptor internalization and eventual degradation. […] This was first performed using the U373 glioma cell line engineered to overexpress EphA2.

Chain of endogenous EphA2 (P29317 24-976): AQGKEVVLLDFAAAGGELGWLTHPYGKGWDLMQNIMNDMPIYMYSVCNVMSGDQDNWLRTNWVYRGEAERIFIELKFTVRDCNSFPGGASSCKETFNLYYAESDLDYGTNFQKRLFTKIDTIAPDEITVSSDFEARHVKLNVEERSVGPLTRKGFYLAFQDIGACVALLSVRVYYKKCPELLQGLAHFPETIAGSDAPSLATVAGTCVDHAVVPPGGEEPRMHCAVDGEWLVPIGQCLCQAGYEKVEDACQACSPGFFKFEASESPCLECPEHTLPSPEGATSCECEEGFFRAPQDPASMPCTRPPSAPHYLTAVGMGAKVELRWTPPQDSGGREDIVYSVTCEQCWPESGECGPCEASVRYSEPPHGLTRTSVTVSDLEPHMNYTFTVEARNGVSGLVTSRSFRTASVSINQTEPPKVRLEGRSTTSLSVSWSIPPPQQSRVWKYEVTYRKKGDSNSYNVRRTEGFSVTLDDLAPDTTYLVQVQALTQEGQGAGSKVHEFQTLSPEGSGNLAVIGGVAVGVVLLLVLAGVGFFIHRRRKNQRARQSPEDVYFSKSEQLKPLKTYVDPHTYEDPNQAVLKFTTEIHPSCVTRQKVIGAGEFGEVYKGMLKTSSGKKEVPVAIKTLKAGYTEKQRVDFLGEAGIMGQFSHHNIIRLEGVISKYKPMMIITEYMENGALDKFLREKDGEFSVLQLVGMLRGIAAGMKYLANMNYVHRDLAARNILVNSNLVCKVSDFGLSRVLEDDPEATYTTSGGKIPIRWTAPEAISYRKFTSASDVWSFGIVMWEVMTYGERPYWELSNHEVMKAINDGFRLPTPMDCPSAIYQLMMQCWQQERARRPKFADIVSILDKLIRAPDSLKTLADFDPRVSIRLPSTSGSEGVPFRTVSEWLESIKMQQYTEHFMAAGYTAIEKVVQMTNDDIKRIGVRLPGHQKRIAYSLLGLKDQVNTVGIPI

`COc1cc2nc(N3CCN(C(=O)C4COc5ccccc5O4)CC3)nc(N)c2cc1OC` (stereo not drawn) [Doxazosin, 2-[4-(2,3-Dihydro-1,4-benzodioxine-2-carbonyl)piperazin-1-yl]-6,7-dimethoxyquinazolin-4-amine]: the “inhibition of Akt and ERK1/2 activation” value in test [1] was “significant inhibition of Akt and ERK1/2 activation”. For the same molecule, the “ERK and Akt inhibition after reintroduction of EphA2” value in test [2] is “restored ERK and Akt inhibition”. Further, in test [3], the EphA2 internalization entry was “caused significant internalization of the endogenous EphA2”.
